Measurements reported in US12180466B2, “Plant tissue collection, RNA extraction and genetic analysis” (WINFIELD SOLUTIONS, LLC, priority 2018, dated 2024).

Tests used:
[1] = test system: maize seeds; assay: Whole-genome RNA sequencing of tissue from PGR-treated germinating maize seeds/seedlings, gene expression relative to control; format: in vivo; conditions: radicle, 144-hour timepoint
Description: This study applied 5 different PGRs to separate treatment groups each comprised of 30 maize seeds. A negative control group of 30 maize seeds was exposed to a control solution devoid of any PGRs. The ability to germinate the seeds and harvest the desired tissues from the seeds and nascent seedlings at 5 timepoints was evaluated, and the total RNA extracted, sequenced and analyzed. […] Ten plates were prepared for each of the 6 groups evaluated (5 treatment groups+1 control group). Each test group included 5 subgroups, each subgroup corresponding to 1 of the 5 harvesting timepoints. Replicates of each subgroup were prepared, such that each of the 5 subgroups of seeds occupied two plates. Group 1 served as the untreated negative control group. Group 2 was treated with a first PGR composition (“PGR 1”) that includes active components containing 0.09 wt % cytokinin (kinetin), 0.03 wt % GA, and 0.045 wt % IBA. Group 3 was treated with kinetin. Group 4 was treated with GA. Group 5 was treated with IBA. […] Expression data for 39,460 different genes was obtained and analyzed to identify which genes were differentially expressed relative to control samples at the timepoints and tissue types sampled and in response to the different treatments applied to each test group.

[2] = test system: maize seeds; assay: Germination of treated maize seeds and harvestability of tissue at timepoints (Maize Trial 1); format: in vivo; conditions: for non-harvestable seeds (did not germinate): 120-hour timepoint, subgroup 4, radicle and coleoptile
Description: This study applied 5 different PGRs to separate treatment groups each comprised of 30 maize seeds. A negative control group of 30 maize seeds was exposed to a control solution devoid of any PGRs. The ability to germinate the seeds and harvest the desired tissues from the seeds and nascent seedlings at 5 timepoints was evaluated, and the total RNA extracted, sequenced and analyzed. […] Ten plates were prepared for each of the 6 groups evaluated (5 treatment groups+1 control group). Each test group included 5 subgroups, each subgroup corresponding to 1 of the 5 harvesting timepoints. Replicates of each subgroup were prepared, such that each of the 5 subgroups of seeds occupied two plates. Group 1 served as the untreated negative control group. Group 2 was treated with a first PGR composition (“PGR 1”) that includes active components containing 0.09 wt % cytokinin (kinetin), 0.03 wt % GA, and 0.045 wt % IBA. Group 3 was treated with kinetin. Group 4 was treated with GA. Group 5 was treated with IBA. Group 6 was treated with a second PGR composition (“PGR 2”) that includes active components containing 0.11 wt % CPPA and 0.01 wt % cytokinin (kinetin). Stock solutions of the treatments were prepared, each including equal amounts of propylene glycol, which was used to dissolve the kinetin. The amount of each treatment substance applied per seed varied between, but not within, the treatment groups. As shown below in Table 1, the control group was untreated. Each seed within group 2 was treated with 1.2 μL of the PGR 1. Each seed within group 3 was treated with 1.14 μg of kinetin. Each seed within group 4 was treated with 0.572 μg of GA. Each seed within group 5 was treated with 0.381 μg of IBA. Each seed within group 6 was treated with 1.7 μL of PGR 2. The seeds in each group were incubated at 15.5° C. and harvested at 5 timepoints. The first subgroup within each group was harvested after 12 hours of incubation, the second subgroup after 24 hours, the third subgroup after 96 hours, the fourth subgroup after 120 hours, and the fifth subgroup after 144 hours. […]

O=C(O)CCCc1c[nH]c2ccccc12 [IBA, indole-3-butyric acid]
expression of gene coding for phosphopantothenate-cysteine ligase protein [1]: increased expression | seeds that did not germinate ([2]; 144-hour timepoint, subgroup 5): 1 seeds

c1coc(CNc2ncnc3[nH]cnc23)c1 [group 3, kinetin]
non-harvestable seeds (did not germinate) [2]: 2 seeds

C=C1C[C@]23C[C@@]1(O)CC[C@H]2[C@@]12C=C[C@H](O)[C@@](C)(C(=O)O1)[C@H]2[C@@H]3C(=O)O [group 4, gibberellic acid]
non-harvestable seeds (did not germinate) [2]: 1 seeds
